Where two headings read alike, the source gives them in different places.
Legend:
NUGC3 (P53 Y220C) = test: Cell viability assay (CellTiter-Glo, 6 days), NUGC3; type: cell-based; settings: Homo sapiens, NUGC-3, 144 h; cell viability, 6 days, CellTiter-Glo; read-out: NUGC3 (P53 Y220C) IC50
Summary of the method: (§1)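 After a 6-day compound exposure following overnight plating, ATP luminescence (CellTiter-Glo) gave percent viability relative to DMSO-treated cells and cell-free medium controls. IC50 = concentration at 50% viability, from 4-parameter logistic or Excel fit.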

[1] = test system: NUGC-3_P53_Luc single clonal cell line (p53 Y220C); test: Reporter gene assay (p53 RE luciferase); type: cell-based; settings: Homo sapiens, luciferase reporter, 6 hours, normalized to Ref-1a (10 μM) high control, read-out: p53(Y220C)_NUGC-3 EC50
Summary of the method: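 Luminescence normalised to DMSO-only (0%) and 10 μM Ref-1a (100%) wells gives % activity, fitted by 4-parameter logistic or Excel to yield EC50 at 50%. Reporter line: NUGC-3 with p53 response element-luc2P, compound-treated 6 h at 37 °C.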

NUGC4 (P53 WT) = test: Cell viability assay (CellTiter-Glo, 6 days), NUGC4; type: cell-based; settings: Homo sapiens, NUGC-4, 144 h; cell viability, 6 days, CellTiter-Glo; read-out: NUGC4 (P53 WT) IC50
Summary of the method: as §1

[2] = biological target: T1, His-p53 Y220C (94-294) protein (Homo sapiens, UniProt P04637, Y220C); test: In vitro DNA binding assay (HTRF); type: biochemical; settings: % activation normalized to 2 μM Ref-1a high control
T1 construct: His-p53 Y220C (94-294) protein

SMILES | EC50 [2] [nM] | IC50 (NUGC3 (P53 Y220C)) [nM] | EC50 ([1]; NUGC-3) [nM] | IC50 (NUGC4 (P53 WT)) [nM] | EC50 ([1]; NUGC-3, 6 h) [nM]
[2H]C([2H])([2H])Oc1cc(P(C)(C)=O)ccc1NCC#Cc1sc2c(N[C@@H]3CCN(C4CCOCC4)C[C@@H]3F)cccc2c1CC(F)(F)F [Example 184, (4-((3-(7-(((3S,4R)-3-fluoro-1-(tetrahydro-2H-pyran-4-yl)piperidin-4-yl)amino)-3-(2,2,2-trifluoroethyl)benzo[b]thiophen-2-yl)prop-2-yn-1-yl)amino)-3-(methoxy-d3)phenyl)dimethylphosphine oxide] | 42 | 440 | 100 | 4460 | –
CN1CC[C@@H](Nc2cccc3c(CC(F)(F)F)c(C#CCNc4ccc(P(C)(C)=O)c5c4OCC5)sc23)[C@@H](F)C1 [Example 187, (7-((3-(7-(((3S,4R)-3-fluoro-1-methylpiperidin-4-yl)amino)-3-(2,2,2-trifluoroethyl)benzo[b]thiophen-2-yl)prop-2-yn-1-yl)amino)-2,3-dihydrobenzofuran-4-yl)dimethylphosphine oxide] | 33 | 290 | 50 | 5320 | –
COc1cc(N2CCOCC2=O)ccc1NCC#Cc1sc2c(NC3CCN(C)CC3F)cccc2c1CC(F)(F)F (centres unmarked) [Example 192, 4-(4-((3-(7-((3-fluoro-1-methylpiperidin-4-yl)amino)-3-(2,2,2-trifluoroethyl)benzo[b]thiophen-2-yl)prop-2-yn-1-yl)amino)-3-methoxyphenyl)morpholin-3-one] | 34 | 1190 | 130 | 7610 | –
CN1CC[C@@H](Nc2cccc3c(CC(F)(F)F)c(C#CCNc4ccc(P(C)(C)=O)c5c4OCCO5)sc23)[C@@H](F)C1 [Example 193, (8-((3-(7-(((3S,4R)-3-fluoro-1-methylpiperidin-4-yl)amino)-3-(2,2,2-trifluoroethyl)benzo[b]thiophen-2-yl)prop-2-yn-1-yl)amino)-2,3-dihydrobenzo[b][1,4]dioxin-5-yl)dimethylphosphine oxide] | 113 | 1220 | 130 | 18600 | –
COc1c(NCC#Cc2sc3c(N[C@@H]4CCN(C)C[C@@H]4F)cccc3c2CC(F)(F)F)ccc(P(C)(C)=O)c1F [Example 194, (2-fluoro-4-((3-(7-(((3S,4R)-3-fluoro-1-methylpiperidin-4-yl)amino)-3-(2,2,2-trifluoroethyl)benzo[b]thiophen-2-yl)prop-2-yn-1-yl)amino)-3-methoxyphenyl)dimethylphosphine oxide] | 33 | 1750 | 150 | 12200 | –
CN1CC[C@@H](Nc2cccc3c(CC(F)(F)F)c(C#CCNc4ccc(P(C)(C)=O)c5ccoc45)sc23)[C@@H](F)C1 [Example 198, (7-((3-(7-(((3S,4R)-3-fluoro-1-methylpiperidin-4-yl)amino)-3-(2,2,2-trifluoroethyl)benzo[b]thiophen-2-yl)prop-2-yn-1-yl)amino)benzofuran-4-yl)dimethylphosphine oxide] | 43 | 260 | 200 | 5100 | –
CN1CC[C@@H](Nc2cccc3c(CC(F)(F)F)c(C#CCNc4ccc(P(C)(C)=O)cc4C(N)=O)sc23)[C@@H](F)C1 [Example 199, 5-(dimethylphosphoryl)-2-((3-(7-(((3S,4R)-3-fluoro-1-methylpiperidin-4-yl)amino)-3-(2,2,2-trifluoroethyl)benzo[b]thiophen-2-yl)prop-2-yn-1-yl)amino)benzamide] | 27 | 360 | 60 | 49000 | –
COc1cc(P(C)(C)=O)ccc1NCC#Cc1sc2c(NC3CCN(CCCF)CC3)cccc2c1CC(F)(F)F [Example 205, (4-((3-(7-((1-(3-fluoropropyl)piperidin-4-yl)amino)-3-(2,2,2-trifluoroethyl)benzo[b]thiophen-2-yl)prop-2-yn-1-yl)amino)-3-methoxyphenyl)dimethylphosphine oxide] | 65 | 1320 | 550 | 4100 | –
COc1nc(P(C)(C)=O)ncc1NCC#Cc1sc2c(N[C@@H]3CCN(C)C[C@@H]3F)cccc2c1CC(F)(F)F [Example 208, (5-((3-(7-(((3S,4R)-3-fluoro-1-methylpiperidin-4-yl)amino)-3-(2,2,2-trifluoroethyl)benzo[b]thiophen-2-yl)prop-2-yn-1-yl)amino)-4-methoxypyrimidin-2-yl)dimethylphosphine oxide] | 43 | 2130 | 710 | 13700 | –
[2H]C([2H])([2H])N1CC[C@@H](Nc2cccc3c(CC(F)(F)F)c(C#CCNc4ccc(P(C)(C)=O)cc4OC)sc23)[C@@H](F)C1 [Example 210, (4-((3-(7-(((3S,4R)-3-fluoro-1-(methyl-d3)piperidin-4-yl)amino)-3-(2,2,2-trifluoroethyl)benzo[b]thiophen-2-yl)prop-2-yn-1-yl)amino)-3-methoxyphenyl)dimethylphosphine oxide] | 16 | 1280 | 30 | 12000 | –
CN1CC[C@@H](Nc2cccc3c(CC(F)(F)F)c(C#CCNc4ccc(P(C)(C)=O)cc4C#N)sc23)[C@@H](F)C1 [Example 211, 5-(dimethylphosphoryl)-2-((3-(7-(((3S,4R)-3-fluoro-1-methylpiperidin-4-yl)amino)-3-(2,2,2-trifluoroethyl)benzo[b]thiophen-2-yl)prop-2-yn-1-yl)amino)benzonitrile] | 52 | 1070 | – | 11300 | 220
CN1CC[C@@H](Nc2cccc3c(CC(F)(F)F)c(C#CCNc4ccc(P(C)(C)=O)cc4-c4cnco4)sc23)[C@@H](F)C1 [Example 214, (4-((3-(7-(((3S,4R)-3-fluoro-1-methylpiperidin-4-yl)amino)-3-(2,2,2-trifluoroethyl)benzo[b]thiophen-2-yl)prop-2-yn-1-yl)amino)-3-(oxazol-5-yl)phenyl)dimethylphosphine oxide] | 38 | 380 | – | 13900 | 100

The next lines start with results.

EC50 [2] [nM] | SMILES | IC50 (NUGC3 (P53 Y220C)) [nM] | EC50 ([1]; NUGC-3) [nM] | IC50 (NUGC4 (P53 WT)) [nM] | EC50 ([1]; NUGC-3, 6 h) [nM]
54 | COc1cc(P(C)(C)=O)ccc1NCC#Cc1sc2c(N[C@@H]3CCN(C4CCCCOC4)C[C@@H]3F)cccc2c1CC(F)(F)F (stereo partly drawn) [Example 185, (4-((3-(7-(((3S,4R)-3-fluoro-1-(oxepan-3-yl)piperidin-4-yl)amino)-3-(2,2,2-trifluoroethyl)benzo[b]thiophen-2-yl)prop-2-yn-1-yl)amino)-3-methoxyphenyl)dimethylphosphine oxide] | 880 | 110 | 2790 | –
45 | COc1cc(P(C)(C)=O)ccc1NCC#Cc1sc2c(NC3CC4(C3)CN(C)C4)cccc2c1CC(F)(F)F [Example 189, (3-methoxy-4-((3-(7-((2-methyl-2-azaspiro[3.3]heptan-6-yl)amino)-3-(2,2,2-trifluoroethyl)benzo[b]thiophen-2-yl)prop-2-yn-1-yl)amino)phenyl)dimethylphosphine oxide] | 3640 | 700 | 8670 | –
58 | CN1CC[C@@H](Nc2cccc3c(CC(F)(F)F)c(C#CCNc4ccc(P(C)(C)=O)cc4-c4ncon4)sc23)[C@@H](F)C1 [Example 213, (4-((3-(7-(((3S,4R)-3-fluoro-1-methylpiperidin-4-yl)amino)-3-(2,2,2-trifluoroethyl)benzo[b]thiophen-2-yl)prop-2-yn-1-yl)amino)-3-(1,2,4-oxadiazol-3-yl)phenyl)dimethylphosphine oxide] | 370 | 220 | 9590 | –
42 | CN1CC[C@@H](Nc2cccc3c(CC(F)(F)F)c(C#CCNc4ccc(P(C)(C)=O)cc4C(=O)NC4CC4)sc23)[C@@H](F)C1 [Example 215, N-cyclopropyl-5-(dimethylphosphoryl)-2-((3-(7-(((3S,4R)-3-fluoro-1-methylpiperidin-4-yl)amino)-3-(2,2,2-trifluoroethyl)benzo[b]thiophen-2-yl)prop-2-yn-1-yl)amino)benzamide] | 370 | 140 | 37300 | –
48 | CN1CC[C@@H](Nc2cccc3c(CC(F)(F)F)c(C#CCNc4ccc(P(C)(C)=O)cc4C(=O)NC4CCOCC4)sc23)[C@@H](F)C1 [Example 216, 5-(dimethylphosphoryl)-2-((3-(7-(((3S,4R)-3-fluoro-1-methylpiperidin-4-yl)amino)-3-(2,2,2-trifluoroethyl)benzo[b]thiophen-2-yl)prop-2-yn-1-yl)amino)-N-(tetrahydro-2H-pyran-4-yl)benzamide] | 270 | 120 | > 50000 | –

From patent US20240400591A1 (Jacobio Pharmaceuticals Co., Ltd., priority 2021, published 2024)
